Molecules are shown by their SMILES.

Data set [1] in a line: Solubility in biorelevant media (SGF, FASSIF). Format: physicochemical. The conditions noted are these: thermodynamic from solid, 37° C., after 1 h.
Data set [2] can be described thus: Physicochemical stability of cocrystal powder stressed at different temperatures and humidities (XRPD). The conditions noted are these: 6 weeks and 12 months at 25° C./60% RH, 25° C./90% RH, 40° C./75% RH and 50° C. Here is the method: FIG. 5 depicts the overlay of the X-ray diffraction spectra of the glutaric acid cocrystal type A of Compound 1 stressed 6 weeks at 25° C./60% RH, 25° C./90% RH, 40° C./75% RH and 50° C. with the theoretical X-ray diffraction spectrum of the said cocrystal (calculated form the single crystal structure).
FIG. 6 depicts the overlay of the X-ray diffraction spectra of the glutaric acid cocrystal type A of Compound 1 stressed 12 months at 25° C./60% RH, 25° C./90% RH, 40° C./75% RH and 50° C. with the theoretical X-ray diffraction spectrum of the said cocrystal (calculated form the single crystal structure).
The XRPD patterns were recorded from 3.5° 2q to 35° 2q using an Empyrean diffractometer from Panalytical operating in the transmission mode with CuKα radiation (l=1.5418 Å) at 45 kV and 40 mA and with a 0.013° 2q step size for 15 minutes (list of examples).

A short description of data set [3]: Sorption/desorption isotherm 0% RH to 90% RH at 25° C. Format: physicochemical. Here is the method:
The sorption isotherm of the cocrystal was recorded between 0% RH and 90% RH at 25° C. (see FIG. 7).
The sorption/desorption isotherm of the cocrystal was recorded using the following method: • Equilibrate the sample at 0% RH until the dm/dt was below 0.0005% for 30 consecutive minutes or until maximum 24 hours. • Increase of the relative humidity up to 90% RH with step every 10% RH. Each step was maintained until the dm/dt was below 0.0005% for 30 consecutive minutes or until maximum 24 hours. • Decrease of the relative humidity up to 0% RH with step every 10% RH. Each step was maintained until the dm/dt was below 0.0005% for 30 consecutive minutes or until maximum 24 hours.

A short description of data set [4]: Tablets by direct compression: hardness and tensile strength. The class given is physicochemical. The conditions noted are these: 50 mg tablets, 0.5% magnesium stearate. As for the experimental part: Tablets were prepared by direct compression using a STYL'ONE EVO compaction simulator from Medelpharm Instruments.
Compound 1, either in Form 1, Form T11 or as a glutaric acid cocrystal type A was lubricated by 0.5% magnesium stearate before compression. 99.5% of Compound 1 and 0.5% of magnesium stearate (e.g., 4.975 g of Compound 1 and 0.025 g of magnesium stearate) were used. Compound 1 was weighed, and magnesium stearate was sifted on a 0.4 mm sieve and added progressively to Compound 1. The mixture was homogenized using a Turbula T2F blender for 5 minutes.
50 mg tablets were prepared using a STYL'ONE EVO compaction simulator applying a compressing force of 2.5 kN or 5.0 kN.

The nature of data set [5]: Flowability of lubricated mixtures (European Pharmacopeia). The class given is physicochemical. As for the experimental part:
The flowability of the lubricated mixture previously prepared was measured according to the Guidelines of European Pharmacopeia.

A short description of data set [6]: Comparative rat PK study, oral capsules. Format: in vivo. The conditions noted are these: male Wistar rats, 24 mg/kg. As for the experimental part: The objective of this study was to compare the pharmacokinetics (PK) of four oral (PO) dosage forms of Compound 1 in male Wistar rats (4 groups, N=3/group). Lubricated mixtures prepared from Examples 5A (prepared from Form 1 and Form T11) and 5B (prepared from cocrystal of Example 1) and amorphous solid dispersion of Compound 1 obtained through spray drying as in commercial batches were manually and individually filled in capsules (Size 9).
The administered dose was 24 mg/kg, considering that each rat's weight was around 250 g.
Methods: Animals were fasted approximately 6 hours before dosing and fed 3 at 4 hours post-dose. All animals had free access to water. Compound 1 dose were given to rats via oral gavage (2 capsules/one single administration). Blood samples were collected via the saphenous vein into test tubes containing potassium ethylenediaminetetraacetic acid (K2EDTA) from all animals at 0.25, 0.5, 1, 2, 4, 8, 24, 48 and 72 hours post-dose. Blood sample were centrifuged at 2000 g for 5 minutes to obtain plasma samples. Compound 1 concentration in plasma samples was quantified using a liquid chromatography with tandem mass spectrometry (LC-MS/MS) method. The lower limit of quantification was 1.00 ng/mL with a sample volume of 20 μL.

A short description of data set [7]: Four weeks stability study of lubricated mixtures and tablets (XRPD). The conditions noted are these: 4 weeks, open vials, 25° C./60% RH and 40° C./75% RH. Format: physicochemical. Here is the method: Four weeks stability of samples of lubricated mixtures of Example 3B and 5B and tablets of Example 6 prepared from cocrystal of Example 1 was tested according to the following protocol.
All the samples were stored 4 weeks in controlled temperature and humidity chambers in open vials at 25° C./60% RH or 40° C./75% RH. The XPRD analyses were performed extemporaneously in order to be representative of all the samples at temperature and humidity equilibria.
Tablets of Cocrystal+AQ/AV or AV (from Example 6) were gently grinded leading a powder suitable for XRPD analysis. Lubricated mixtures from Examples 3B and 5B were analyzed without grinding. The XRPD patterns were recorded from 3.5° 2q to 35° 2q using an Empyrean diffractometer from Panalytical operating in the transmission mode with CuKα radiation (l=1.5418 Å) at 45 kV and 40 mA and with a 0.013° 2q step size for 30 minutes.

The mark [8] stands for this setting: compressive force applied 2.5 kN.
Setting [9] is: compressive force applied 5.0 kN.
[10] abbreviates: lubricated mixtures of Examples 3A and 3B.

The term solubility denotes the dissolved amount per volume that the medium holds. Broadly, the bioavailability is the share of a dose that reaches the circulation, judged against a reference dose that is usually intravenous. With `N#Cc1ccnc(N2C(=O)CC[C@H]2C(=O)N(c2cncc(F)c2)[C@H](C(=O)NC2CC(F)(F)C2)c2ccccc2Cl)c1` [Glutaric acid cocrystal of Compound 1], the solubility at 1 h in data set [1] (simulated gastric fluid, SGF) was 8 µg/mL. The solubility at 1 h in data set [1] (FASSIF) was determined as 13 µg/mL. Also, the “Physicochemical stability of the powder” value in data set [2] is “physicochemically stable”. Further, in data set [3], the “Stability in humidity conditions (sorption isotherm)” value is “stable”. In data set [4] (setting [8]), this compound gave a Tablet hardness of 41.6 N and a Tensile strength of 2.562 MPa. In addition, in data set [4] (setting [9]), the Tablet hardness was found to be 46.4 N and the Tensile strength was found to be 2.998 MPa. Further, in data set [5] (setting [10]), the “Carr's Index” value is reported as 24%, the “Carr's Index (flowability) rating” value was “Adequate”, the “Flowability” value is recorded as “suitable flowability” and the Hausner ratio was 1.32. For the same compound, the “Hausner ratio (cohesion + compressibility) rating” value in data set [5] (setting [10]) is listed as “Adequate”. Further, the Flow time in data set [5] (lubricated mixtures of Examples 3A and 3B (AV, without AQ), N.S.F. = no spontaneous flow detected) came to 8.3 s. Besides, in data set [6], the Inter-individual variability was found to be 11% and the “Kinetics of absorption / absorption profile versus commercial formulation” value was “comparable to the one of the commercial formulation”. In addition, the bioavailability in data set [6] (rat, plasma, read-out: Relative bioavailability compared to commercial formulation) amounted to 61%. For the same compound, the “Stability of the cocrystal in lubricated mixtures and tablets (AQ/AV or AV)” value in data set [7] is on record as “perfectly stable”.

These data come from patent US20250041283A1, “COCRYSTAL OF AN IDH1 INHIBITOR, PROCESS OF PREPARATION THEREOF, PHARMACEUTICAL COMPOSITIONS THEREOF, AND METHODS OF TREATMENT INVOLVING THE SAME” (Servier Pharmaceuticals LLC, priority 2023, published 2025).
